Reference: paper PMC8548483, “Bioactive compounds from an endophytic fungi Nigrospora aurantiaca” (Botanical Studies, 2021)
“Also recorded” adds a separate entry of the source.

Legend:
Assay type in all cases: cell-based, murine
[1] = test system: NO production in LPS-activated microglial BV-2 cells; test: Inhibition of NO production in LPS-activated microglial BV-2 cells (Griess method); settings: for Inhibitory effect on NO production (in words): LPS-activated BV-2 cells; for IC50: Mus musculus, LPS (150 ng/mL)-stimulated BV-2 cells, 15 min pretreatment, 24 h, mean ± SD (n = 3), read-out: IC50 (inhibitory effect on NO production)
Experimental: (§1) The murine BV-2 microglial cell line cultured followed the procedure of our previous reports (Hsiao et al. [2020]). In summary, BV-2 cells were cultured with DMEM containing Fetal Bovine Serum (FBS), streptomycin/penicillin, Lglutamine and HEPES at 37 °C, humidified 5% CO2. Prior to the study, BV-2 cells were cultured in FBS media (5%), pretreated with carrier media or various concentrations of compounds for 15 min, and eventually collected after 24 h of stimulation with LPS (150 ng/mL).
The level of nitric oxide (NO) metabolites from the production of activated BV-2 cells was measured with reference to the Griess method (Wang et al. [2018]).

microglial BV-2 cells = test: Cell viability (MTT test) in BV-2 cells; settings: 10 µM
Experimental: as §1
(§2) As in our previous report, cellular viability was assessed using MTT test where BV-2 cells, along with other compounds were treated for 24 h (Hsiao et al. [2020]).

[2] = Cell viability (MTT test) in BV-2 cells; settings: mouse, BV-2 microglial cells, 24 h, MTT, mean ± SD (n = 3), read-out: Cell viabillity (%)
Experimental: as §1, §2

Row | Structure (SMILES) | Inhibitory effect on NO production (in words) [1] | IC50 [1] [µM] | Cytotoxicity against microglial BV-2 cells (in words) (microglial BV-2 cells) | viability at 24 h, 10 µM [2] [%]
1 | COC1=CC(=O)c2c(O)c3c(c(O)c2C1=O)C[C@](C)(O)[C@H](O)[C@H]3O [Compound 3, bostrycin] | potently inhibitory effects; also recorded: potential inhibitory activities | 2.3 ± 0.3 | significant cytotoxicity | 10.7 ± 0.8
2 | C/C=C/C=C(\CO)C(/C=C/C)CO (stereo not shown) [Compound 1, nigaurdiol] | weak inhibitory effects; also recorded: weak inhibitory activities | 32.2 ± 3.3 | no cytotoxic activity | 103 ± 8.8
3 | COc1cc(/C=C/C(=O)CC(=O)/C=C/c2ccc(O)c(OC)c2)ccc1O [Curcumin, curcumin, reference compound] |  | 6 ± 0.3 |  | 
4 | CC(C)[C@@H](C)/C=C/[C@@H](C)[C@H]1CC[C@H]2C3=CC=C4C[C@@H](O)CC[C@]4(C)[C@H]3CC[C@]12C [Compound 6, ergosterol] | potently inhibitory effects; also recorded: potential inhibitory activities; also recorded: considerable inhibitory effect | 7.2 ± 1.4 | no significant cytotoxic effect | 90.8 ± 6.7
5 | COC1=CC(=O)c2c(O)c3c(c(O)c2C1=O)C[C@](C)(O)[C@H](O)C3 [Compound 4, deoxybostrycin] | potently inhibitory effects; also recorded: potential inhibitory activities | 2.5 ± 0.5 | significant cytotoxicity | 11.3 ± 1.3
6 | Cc1cc(O)c2c(c1)O[C@@]1(C)OC[C@H](C)C1C2 (stereo partly shown) [Compound 2, xyloketal K] | weak inhibitory effects; also recorded: weak inhibitory activities | 30.1 ± 3 | no cytotoxic activity | 98.3 ± 7.6
7 | COc1cc(O)c2c(c1O)[C@@H](O)[C@@H]1C[C@](C)(O)[C@H](O)C[C@@H]1C2=O [Compound 5, xylanthraquinone] | weak inhibitory effects; also recorded: weak inhibitory activities | 32.1 ± 6.7 | no cytotoxic activity | 103 ± 6.9
